Molecular target: T1, full-length beta-catenin (Axin site) (Homo sapiens, UniProt P35222)
T1 construct: 15 nM full-length beta-catenin, 20 nM FITC labeled peptide in buffer
T1 sequence (P35222 1-781): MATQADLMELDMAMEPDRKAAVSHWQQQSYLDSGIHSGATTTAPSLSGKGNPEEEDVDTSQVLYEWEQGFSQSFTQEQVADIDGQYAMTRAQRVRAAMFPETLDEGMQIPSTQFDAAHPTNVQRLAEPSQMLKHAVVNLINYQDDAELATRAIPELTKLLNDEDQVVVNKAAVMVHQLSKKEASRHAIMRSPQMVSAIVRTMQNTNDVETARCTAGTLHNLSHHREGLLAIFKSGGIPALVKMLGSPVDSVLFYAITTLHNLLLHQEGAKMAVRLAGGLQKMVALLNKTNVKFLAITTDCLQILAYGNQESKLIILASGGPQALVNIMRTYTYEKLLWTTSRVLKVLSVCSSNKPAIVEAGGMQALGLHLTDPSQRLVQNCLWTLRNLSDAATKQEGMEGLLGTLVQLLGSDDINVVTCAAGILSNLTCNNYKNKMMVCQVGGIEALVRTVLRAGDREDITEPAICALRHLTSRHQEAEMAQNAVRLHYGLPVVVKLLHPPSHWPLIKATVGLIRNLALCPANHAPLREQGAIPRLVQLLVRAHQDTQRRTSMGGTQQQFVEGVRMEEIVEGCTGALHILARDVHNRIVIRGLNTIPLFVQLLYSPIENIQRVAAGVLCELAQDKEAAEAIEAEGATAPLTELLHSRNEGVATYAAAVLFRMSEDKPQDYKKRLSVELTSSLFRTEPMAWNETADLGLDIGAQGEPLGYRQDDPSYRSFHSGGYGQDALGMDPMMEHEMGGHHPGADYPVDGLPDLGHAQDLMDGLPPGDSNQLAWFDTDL
Assay: Competition fluorescence polarization assay (Axin site probe)
Type: binding
Details: competition fluorescence polarization, Table 2; read-out: in vitro FP EC50
Outline: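 Competition FP: 15 nM full-length β-catenin pre-incubated 5 min with 20 nM FITC-labelled stapled Axin-site peptide, then titrated peptide added (3-fold series from 5 μM) for 15 min in the dark. Buffer 50 mM Tris pH 8.0, 250 mM NaCl, 2% glycerol, 0.5 mM EDTA; duplicate reads.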

| EC50 | Structure (SMILES) |
| --- | --- |
| > 5 µM | CC[C@H](C)[C@@H]1NC(=O)[C@H](Cc2ccccn2)NC(=O)[C@H](C)NC(=O)[C@H](CC(=O)O)NC(=O)[C@H](CC(C)C)NC(=O)[C@H]([C@@H](C)CC)NC(=O)[C@](C)(NC(=O)[C@H](C)NC(C)=O)CCCCCCC=CCOC(=O)N2CC[C@@](C(=O)N[C@@H](Cc3cccs3)C(=O)N[C@H](C(=O)N[C@@H](Cc3c[nH]c4ccccc34)C(N)=O)C(C)C)(C2)NC1=O (single isomer, unassigned) [FP0571c Isomer 1, Ac-A-R8-I-L-D-A-2pyr-I-MB-thi-V-W-NH2] |
| > 5 µM | CC[C@H](C)[C@@H]1NC(=O)[C@H](Cc2ccccn2)NC(=O)[C@H](C)NC(=O)[C@H](CC(=O)O)NC(=O)[C@H](CC(C)C)NC(=O)[C@H]([C@@H](C)CC)NC(=O)[C@](C)(NC(=O)[C@H](C)NC(C)=O)CCCCCCC=CCOC(=O)N2CC[C@@](C(=O)N[C@@H](Cc3cccs3)C(=O)N[C@H](C(=O)N[C@@H](Cc3c[nH]c4ccccc34)C(N)=O)C(C)C)(C2)NC1=O (single isomer, unassigned) [FP0571c Isomer 2, Ac-A-R8-I-L-D-A-2pyr-I-MB-thi-V-W-NH2] |
| > 5 µM | CC[C@H](C)[C@@H]1NC(=O)[C@H](Cc2ccccn2)NC(=O)[C@H](C)NC(=O)[C@H](CC(=O)O)NC(=O)[C@H](CC(C)C)NC(=O)[C@H]([C@@H](C)CC)NC(=O)[C@](C)(NC(=O)[C@H](C)NC(C)=O)CCCCCCC=CCOC(=O)N2CC[C@@](C(=O)N[C@@H](Cc3ccccn3)C(=O)N[C@H](C(=O)N[C@@H](Cc3c[nH]c4ccccc34)C(N)=O)C(C)C)(C2)NC1=O (single isomer, unassigned) [FP0572c Isomer 1, Ac-A-R8-I-L-D-A-2pyr-I-MB-2pyr-V-W-NH2] |
| > 5 µM | CC[C@H](C)[C@@H]1NC(=O)[C@H](Cc2ccccn2)NC(=O)[C@H](C)NC(=O)[C@H](CC(=O)O)NC(=O)[C@H](CC(C)C)NC(=O)[C@H]([C@@H](C)CC)NC(=O)[C@](C)(NC(=O)[C@H](C)NC(C)=O)CCCCCCC=CCOC(=O)N2CC[C@@](C(=O)N[C@@H](Cc3cccnc3)C(=O)N[C@H](C(=O)N[C@@H](Cc3c[nH]c4ccccc34)C(N)=O)C(C)C)(C2)NC1=O (single isomer, unassigned) [FP0573c Isomer 1, Ac-A-R8-I-L-D-A-2pyr-I-MB-3pyr-V-W-NH2] |
| > 5 µM | CC[C@H](C)[C@@H]1NC(=O)[C@H](Cc2ccccn2)NC(=O)[C@H](C)NC(=O)[C@H](CC(=O)O)NC(=O)[C@H](CC(C)C)NC(=O)[C@H]([C@@H](C)CC)NC(=O)[C@](C)(NC(=O)[C@H](C)NC(C)=O)CCCCCCC=CCOC(=O)N2CC[C@@](C(=O)N[C@@H](Cc3cccnc3)C(=O)N[C@H](C(=O)N[C@@H](Cc3c[nH]c4ccccc34)C(N)=O)C(C)C)(C2)NC1=O (single isomer, unassigned) [FP0573c Isomer 2, Ac-A-R8-I-L-D-A-2pyr-I-MB-3pyr-V-W-NH2] |
| > 5 µM | CC[C@H](C)[C@@H]1NC(=O)[C@H](Cc2ccccn2)NC(=O)[C@H](C)NC(=O)[C@H](CC(=O)O)NC(=O)[C@H](CC(C)C)NC(=O)[C@H]([C@@H](C)CC)NC(=O)[C@](C)(NC(=O)[C@H](C)NC(C)=O)CCCCCCC=CCOC(=O)N2CC[C@@](C(=O)N[C@@H](CC3CC3)C(=O)N[C@H](C(=O)N[C@@H](Cc3c[nH]c4ccccc34)C(N)=O)C(C)C)(C2)NC1=O (single isomer, unassigned) [FP0574c Isomer 1, Ac-A-R8-I-L-D-A-2pyr-I-MB-cpa-V-W-NH2] |
| > 5 µM | CC[C@H](C)[C@@H]1NC(=O)[C@H](Cc2ccccn2)NC(=O)[C@H](C)NC(=O)[C@H](CC(=O)O)NC(=O)[C@H](CC(C)C)NC(=O)[C@H]([C@@H](C)CC)NC(=O)[C@](C)(NC(=O)[C@H](C)NC(C)=O)CCCCCCC=CCOC(=O)N2CC[C@@](C(=O)N[C@@H](CC3CC3)C(=O)N[C@H](C(=O)N[C@@H](Cc3c[nH]c4ccccc34)C(N)=O)C(C)C)(C2)NC1=O (single isomer, unassigned) [FP0574c Isomer 2, Ac-A-R8-I-L-D-A-2pyr-I-MB-cpa-V-W-NH2] |
| > 5 µM | CC[C@H](C)[C@@H]1NC(=O)[C@H](Cc2ccccn2)NC(=O)[C@H](C)NC(=O)[C@H](CC(=O)O)NC(=O)[C@H](CC(C)C)NC(=O)[C@H]([C@@H](C)CC)NC(=O)[C@](C)(NC(=O)[C@H](C)NC(C)=O)CCCCCCC=CCOC(=O)N2CC[C@@](C(=O)N[C@@H](Cc3ccc(OC)cc3)C(=O)N[C@H](C(=O)N[C@@H](Cc3c[nH]c4ccccc34)C(N)=O)C(C)C)(C2)NC1=O (single isomer, unassigned) [FP0575c Isomer 1, Ac-A-R8-I-L-D-A-2pyr-I-MB-MeY-V-W-NH2] |
| > 5 µM | CC[C@H](C)[C@@H]1NC(=O)[C@H](Cc2ccccn2)NC(=O)[C@H](C)NC(=O)[C@H](CC(=O)O)NC(=O)[C@H](CC(C)C)NC(=O)[C@H]([C@@H](C)CC)NC(=O)[C@](C)(NC(=O)[C@H](C)NC(C)=O)CCCCCCC=CCOC(=O)N2CC[C@@](C(=O)N[C@@H](Cc3ccc(OC)cc3)C(=O)N[C@H](C(=O)N[C@@H](Cc3c[nH]c4ccccc34)C(N)=O)C(C)C)(C2)NC1=O (single isomer, unassigned) [FP0575c Isomer 2, Ac-A-R8-I-L-D-A-2pyr-I-MB-MeY-V-W-NH2] |
| > 5 µM | CC[C@H](C)[C@@H]1NC(=O)[C@H](Cc2ccccn2)NC(=O)[C@H](C)NC(=O)[C@H](CC(=O)O)NC(=O)[C@H](CC(C)C)NC(=O)[C@H]([C@@H](C)CC)NC(=O)[C@](C)(NC(=O)[C@H](C)NC(C)=O)CCCCCCC=CCOC(=O)N2CC[C@@](C(=O)N[C@@H](Cc3ccc(F)cc3)C(=O)N[C@H](C(=O)N[C@@H](Cc3c[nH]c4ccccc34)C(N)=O)C(C)C)(C2)NC1=O (single isomer, unassigned) [FP0576c Isomer 1, Ac-A-R8-I-L-D-A-2pyr-I-MB-4FF-V-W-NH2] |
| > 5 µM | CC[C@H](C)[C@@H]1NC(=O)[C@H](Cc2ccccn2)NC(=O)[C@H](C)NC(=O)[C@H](CC(=O)O)NC(=O)[C@H](CC(C)C)NC(=O)[C@H]([C@@H](C)CC)NC(=O)[C@](C)(NC(=O)[C@H](C)NC(C)=O)CCCCCCC=CCOC(=O)N2CC[C@@](C(=O)N[C@@H](Cc3ccc(F)cc3)C(=O)N[C@H](C(=O)N[C@@H](Cc3c[nH]c4ccccc34)C(N)=O)C(C)C)(C2)NC1=O (single isomer, unassigned) [FP0576c Isomer 2, Ac-A-R8-I-L-D-A-2pyr-I-MB-4FF-V-W-NH2] |
| > 5 µM | CC[C@H](C)[C@@H]1NC(=O)[C@H](Cc2ccccn2)NC(=O)[C@H](C)NC(=O)[C@H](CC(=O)O)NC(=O)[C@H](CC(C)C)NC(=O)[C@H]([C@@H](C)CC)NC(=O)[C@](C)(NC(=O)[C@H](C)NC(C)=O)CCCCCCC=CCOC(=O)N2CC[C@@](C(=O)N[C@@H](Cc3cccc4ccccc34)C(=O)N[C@H](C(=O)N[C@@H](Cc3c[nH]c4ccccc34)C(N)=O)C(C)C)(C2)NC1=O (single isomer, unassigned) [FP0577c Isomer 1, Ac-A-R8-I-L-D-A-2pyr-I-MB-1NapA-V-W-NH2] |
| > 5 µM | CC[C@H](C)[C@@H]1NC(=O)[C@H](Cc2ccccn2)NC(=O)[C@H](C)NC(=O)[C@H](CC(=O)O)NC(=O)[C@H](CC(C)C)NC(=O)[C@H]([C@@H](C)CC)NC(=O)[C@](C)(NC(=O)[C@H](C)NC(C)=O)CCCCCCC=CCOC(=O)N2CC[C@@](C(=O)N[C@@H](Cc3ccc(C)cc3)C(=O)N[C@H](C(=O)N[C@@H](Cc3c[nH]c4ccccc34)C(N)=O)C(C)C)(C2)NC1=O (single isomer, unassigned) [FP0578c Isomer 1, Ac-A-R8-I-L-D-A-2pyr-I-MB-4MeF-V-W-NH2] |
| > 5 µM | CC[C@H](C)[C@@H]1NC(=O)[C@H](Cc2ccccn2)NC(=O)[C@H](C)NC(=O)[C@H](CC(=O)O)NC(=O)[C@H](CC(C)C)NC(=O)[C@H]([C@@H](C)CC)NC(=O)[C@](C)(NC(=O)[C@H](C)NC(C)=O)CCCCCCC=CCOC(=O)N2CC[C@@](C(=O)N[C@@H](Cc3ccc(C)cc3)C(=O)N[C@H](C(=O)N[C@@H](Cc3c[nH]c4ccccc34)C(N)=O)C(C)C)(C2)NC1=O (single isomer, unassigned) [FP0578c Isomer 2, Ac-A-R8-I-L-D-A-2pyr-I-MB-4MeF-V-W-NH2] |
| 0.5 to 5 µM | CC[C@H](C)[C@@H]1NC(=O)C2(NC(=O)[C@H](CCC(N)=O)NC(=O)[C@@H]3CCCN3C(C)=O)CN(C2)C(=O)OCC=CCC[C@](C)(C(=O)N[C@@H](Cc2c[nH]cn2)C(=O)N[C@H](C(=O)N[C@@H](CCCNC(=N)N)C(=O)N[C@@H](CCCNC(=N)N)C(=O)N[C@H](C(=O)N[C@@H](Cc2c[nH]c3ccccc23)C(=O)N[C@@H](CCCNC(=N)N)C(N)=O)C(C)C)C(C)C)NC(=O)[C@H](CC(=O)O)NC(=O)[C@H](CC(C)C)NC1=O (single isomer, unassigned) [FP0721c, Ac-P-Q-MA-I-L-D-R4-H-V-R-R-V-W-R-NH2] |

From US11198713B2, “Agents modulating beta-catenin functions and methods thereof” (FOG PHARMACEUTICALS, INC., priority 2017, dated 2021)
